Measured values taken from the supplement of paper PMC11061612.

Experiments:
[1] = test system: MKN1 (Gastric Carcinoma); assay: Bliss excess, mean over the matrix (fraction); higher = more synergy
Method in brief: (§1)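 Cell lines grown in DMEM/F12 or RPMI with 10% FBS were plated in 1536-well plates and held 24 hours at 37°C, 5% CO2 before 72 hours of exposure to two-drug dose matrices, with DMSO typically at 0.2%. CellTiter-Glo 2.0 luminescence gave viability, which was converted to inhibition. Vehicle wells were set to 0 and blank wells to 1. Combination Emax is the second-highest inhibition in the matrix, and Bliss excess is the observed combination effect minus the expected EA + EB − EA·EB, where EA and EB are the single-agent effects.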

[2] = test system: NCI-H841 (Small Cell Lung Carcinoma); assay: as above
Method in brief: as §1

[3] = test system: MKN1 (Gastric Carcinoma); assay: combination Emax (second highest fraction inhibited in the dose matrix, 72 h); higher = more inhibition; extreme values may be limits of the assay
Method in brief: as §1

[4] = test system: UACC-812 (Breast Carcinoma); assay: as above
Method in brief: as §1

[5] = test system: NCI-H841 (Small Cell Lung Carcinoma); assay: as above
Method in brief: as §1

[6] = test system: A204 (Rhabdomyosarcoma); assay: as above
Method in brief: as §1

[7] = test system: CESS (Acute Myeloid Leukemia); assay: as above
Method in brief: as §1

[8] = test system: DMS-53 (Small Cell Lung Carcinoma); assay: as above
Method in brief: as §1

[9] = test system: 5637 (Bladder Carcinoma); assay: as above
Method in brief: as §1

[10] = test system: NCI-H716 (Colorectal Carcinoma); assay: as above
Method in brief: as §1

[11] = test system: HCC1428 (Breast Carcinoma); assay: as above
Method in brief: as §1

[12] = test system: TE-10 (Esophageal Squamous Cell Carcinoma); assay: as above
Method in brief: as §1

[13] = test system: A253 (Head and Neck Carcinoma); assay: as above
Method in brief: as §1

[14] = test system: huH-1 (Hepatocellular Carcinoma); assay: as above
Method in brief: as §1

[15] = test system: LS-411N (Colorectal Carcinoma); assay: as above
Method in brief: as §1

[16] = test system: KP-N-YN (Neuroblastoma); assay: as above
Method in brief: as §1
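Wherever Bliss excess, mean over the matrix is given: after 72 h of two-drug dosing.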

CN(CCO)CC[C@H](CSc1ccccc1)Nc1ccc(S(=O)(=O)NC(=O)c2ccc(N3CCC([C@@H](O)c4ccccc4-c4ccc(Cl)cc4)CC3)cc2)cc1S(=O)(=O)C(F)(F)F [AZD4320] + CC(=O)O[C@H]1C(=O)[C@@]2(C)[C@H]([C@H](OC(=O)c3ccccc3)[C@]3(O)C[C@H](OC(=O)[C@H](O)[C@@H](NC(=O)c4ccccc4)c4ccccc4)C(C)=C1C3(C)C)[C@]1(OC(C)=O)CO[C@@H]1C[C@@H]2O [Paclitaxel] (first compound max 1 µM, 7x7, partner max 3 µM)
Bliss excess [1]: 0.0566 | Bliss excess [2]: 0.0423 | combination Emax [3]: 0.91 | combination Emax [4]: 0.566 | combination Emax [5]: 0.968

CN(CCO)CC[C@H](CSc1ccccc1)Nc1ccc(S(=O)(=O)NC(=O)c2ccc(N3CCC([C@@H](O)c4ccccc4-c4ccc(Cl)cc4)CC3)cc2)cc1S(=O)(=O)C(F)(F)F [AZD4320] + CCN(CCO)CCCOc1ccc2c(Nc3cc(CC(=O)Nc4cccc(F)c4)[nH]n3)ncnc2c1 [AZD2811] (first compound max 1 µM, 7x7, partner max 1 µM)
combination Emax [6]: 0.261 | combination Emax [7]: 0.937 | combination Emax [8]: 0.949 | combination Emax [9]: 0.898 | combination Emax [10]: 0.298 | combination Emax [11]: 0.754 | combination Emax [12]: 0.463 | combination Emax [4]: 0.12 | combination Emax [13]: 0.467 | combination Emax [14]: 0.297 | combination Emax [15]: 0.567

CN(CCO)CC[C@H](CSc1ccccc1)Nc1ccc(S(=O)(=O)NC(=O)c2ccc(N3CCC([C@@H](O)c4ccccc4-c4ccc(Cl)cc4)CC3)cc2)cc1S(=O)(=O)C(F)(F)F [AZD4320] + Cn1cnc2c(F)c(Nc3ccc(Br)cc3Cl)c(C(=O)NOCCO)cc21 [Selumetinib] (first compound max 1 µM, 7x7, partner max 3 µM)
combination Emax [6]: 0.325 | combination Emax [7]: 0.95 | combination Emax [8]: 1 | combination Emax [9]: 0.782 | combination Emax [10]: 0.582 | combination Emax [11]: 0.559 | combination Emax [12]: 0.562 | combination Emax [4]: 0.238 | combination Emax [13]: 0.523 | combination Emax [14]: 0.291 | combination Emax [15]: 0.907

COc1nnc2ccc(N3CCC(c4ccc(OCCN5CCN(C)C(=O)[C@H]5C)cc4)CC3)nn12 [AZD5153] + CN(CC[C@H](CSC1=CC=CC=C1)NC2=C(C=C(C=C2)S(=O)(=O)NC(=O)C3=CC=C(C=C3)N4CCC(CC4)[C@H](C5=CC=CC=C5C6=CC=C(C=C6)Cl)O)S(=O)(=O)C(F)(F)F)CCO [AZD4320] (first compound max 1 µM, 7x7, partner max 1 µM)
combination Emax [6]: 0.464 | combination Emax [7]: 0.841 | combination Emax [8]: 0.987 | combination Emax [9]: 0.957 | combination Emax [10]: 0.754 | combination Emax [11]: 0.915 | combination Emax [13]: 0.328 | combination Emax [14]: 0.354 | combination Emax [15]: 0.978

N#Cc1cnc(Nc2cc(NC[C@H]3CNCCO3)c(C(F)(F)F)cn2)cn1 [SRA737] + CCc1c2c(nc3ccc(O)cc13)-c1cc3c(c(=O)n1C2)COC(=O)[C@]3(O)CC [SN-38] (first compound max 10 µM, 7x7, partner max 0.3 µM)
Bliss excess [1]: 0.0303 | Bliss excess [2]: 0.044 | combination Emax [3]: 0.866 | combination Emax [4]: 0.475 | combination Emax [5]: 0.62

C[C@@H](c1ccc2nccn2c1)n1nnc2ncc(-c3cnn(C)c3)nc21 [Savolitinib] + Cc1c2c(nn1C)CSCc1cc(n(C)n1)CSc1cc(c3ccccc3c1)OCCCc1c(C(=O)O)n(C)c3c-2c(Cl)ccc13 [AZD5991] (first compound max 1 µM, 7x7, partner max 1 µM)
Bliss excess [1]: -0.0366 | Bliss excess [2]: -0.0178 | combination Emax [6]: 0.167 | combination Emax [16]: 0.324 | combination Emax [7]: 0.175 | combination Emax [8]: 0.209 | combination Emax [9]: 0.0543 | combination Emax [3]: 0.111 | combination Emax [10]: 0.0581 | combination Emax [11]: 0.971 | combination Emax [4]: 0.627 | combination Emax [13]: 0.38 | combination Emax [5]: 0.266 | combination Emax [14]: 0.16 | combination Emax [15]: 0.188

CC(=O)c1c(C)c2cnc(Nc3ccc(N4CCNCC4)cn3)nc2n(C2CCCC2)c1=O [Palbociclib] + CN(CC[C@H](CSC1=CC=CC=C1)NC2=C(C=C(C=C2)S(=O)(=O)NC(=O)C3=CC=C(C=C3)N4CCC(CC4)[C@H](C5=CC=CC=C5C6=CC=C(C=C6)Cl)O)S(=O)(=O)C(F)(F)F)CCO [AZD4320] (first compound max 10 µM, 7x7, partner max 1 µM)
combination Emax [6]: 0.377 | combination Emax [7]: 0.906 | combination Emax [8]: 1 | combination Emax [9]: 0.619 | combination Emax [10]: 0.497 | combination Emax [11]: 0.449 | combination Emax [13]: 0.202 | combination Emax [14]: 0.31 | combination Emax [15]: 0.691

Cc1cc2ncnn2cc1Nc1ncc2c(n1)n(C1CCOCC1)c(=O)n2C [AZD7648] + COc1cc([C@@H]2c3cc4c(cc3[C@@H](O[C@@H]3O[C@@H]5CO[C@@H](C)O[C@H]5[C@H](O)[C@H]3O)[C@H]3COC(=O)[C@H]23)OCO4)cc(OC)c1O [Etoposide] (first compound max 10 µM, 7x7, partner max 10 µM)
Bliss excess [1]: 0.0865 | Bliss excess [2]: 0.0261 | combination Emax [16]: 0.677 | combination Emax [3]: 0.922 | combination Emax [4]: 0.528 | combination Emax [5]: 0.441

CN(CCO)CC[C@H](CSc1ccccc1)Nc1ccc(S(=O)(=O)NC(=O)c2ccc(N3CCC([C@@H](O)c4ccccc4-c4ccc(Cl)cc4)CC3)cc2)cc1S(=O)(=O)C(F)(F)F [AZD4320] + C[C@@H](Nc1cc(F)cc(F)c1)c1cc(C(=O)N(C)C)cc2c(=O)cc(N3CCOCC3)oc12 [AZD8186] (first compound max 1 µM, 7x7, partner max 3 µM)
combination Emax [6]: 0.451 | combination Emax [7]: 0.935 | combination Emax [8]: 0.991 | combination Emax [9]: 0.672 | combination Emax [10]: 0.285 | combination Emax [11]: 0.525 | combination Emax [12]: 0.618 | combination Emax [13]: 0.437 | combination Emax [14]: 0.229 | combination Emax [15]: 0.414

C[C@@H](c1ccc2nccn2c1)n1nnc2ncc(-c3cnn(C)c3)nc21 [Savolitinib] + CN(CC[C@H](CSC1=CC=CC=C1)NC2=C(C=C(C=C2)S(=O)(=O)NC(=O)C3=CC=C(C=C3)N4CCC(CC4)[C@H](C5=CC=CC=C5C6=CC=C(C=C6)Cl)O)S(=O)(=O)C(F)(F)F)CCO [AZD4320] (first compound max 1 µM, 7x7, partner max 1 µM)
combination Emax [6]: 0.0836 | combination Emax [7]: 0.291 | combination Emax [8]: 0.994 | combination Emax [9]: 0.179 | combination Emax [10]: 0.189 | combination Emax [11]: 0.476 | combination Emax [13]: 0.22 | combination Emax [14]: 0.202 | combination Emax [15]: 0.277

CN(CCO)CC[C@H](CSc1ccccc1)Nc1ccc(S(=O)(=O)NC(=O)c2ccc(N3CCC([C@@H](O)c4ccccc4-c4ccc(Cl)cc4)CC3)cc2)cc1S(=O)(=O)C(F)(F)F [AZD4320] + Nc1ccn([C@@H]2O[C@H](CO)[C@@H](O)C2(F)F)c(=O)n1 [Gemcitabine] (first compound max 1 µM, 7x7, partner max 0.3 µM)
Bliss excess [1]: 0.0005 | Bliss excess [2]: -0.0317 | combination Emax [3]: 0.759 | combination Emax [4]: 0.635 | combination Emax [5]: 0.322

C[C@@H](c1ccc2nccn2c1)n1nnc2ncc(-c3cnn(C)c3)nc21 [Savolitinib] + CC1(C)CCC(CN2CCN(c3ccc(C(=O)NS(=O)(=O)c4ccc(NCC5CCOCC5)c([N+](=O)[O-])c4)c(Oc4cnc5[nH]ccc5c4)c3)CC2)=C(c2ccc(Cl)cc2)C1 [Venetoclax] (first compound max 1 µM, 7x7, partner max 1 µM)
Bliss excess [1]: -0.0402 | Bliss excess [2]: -0.0333 | combination Emax [6]: 0.0862 | combination Emax [16]: 0.569 | combination Emax [7]: 0.204 | combination Emax [8]: 0.395 | combination Emax [9]: 0.0801 | combination Emax [3]: 0.0845 | combination Emax [10]: 0.251 | combination Emax [11]: 0.125 | combination Emax [4]: 0.105 | combination Emax [13]: 0.092 | combination Emax [5]: 0.201 | combination Emax [14]: 0.149 | combination Emax [15]: 0.0933

N#Cc1cnc(Nc2cc(NC[C@H]3CNCCO3)c(C(F)(F)F)cn2)cn1 [SRA737] + O=c1[nH]cc(F)c(=O)[nH]1 [5-Fluorouracil] (first compound max 10 µM, 7x7, partner max 20 µM)
Bliss excess [1]: 0.0221 | Bliss excess [2]: -0.0189 | combination Emax [3]: 0.69 | combination Emax [4]: 0.323 | combination Emax [5]: 0.183

N#Cc1cnc(Nc2cc(NC[C@H]3CNCCO3)c(C(F)(F)F)cn2)cn1 [SRA737] + Nc1ccn([C@@H]2O[C@H](CO)[C@@H](O)C2(F)F)c(=O)n1 [Gemcitabine] (first compound max 10 µM, 7x7, partner max 0.3 µM)
Bliss excess [1]: 0.0588 | Bliss excess [2]: 0.0776 | combination Emax [3]: 0.867 | combination Emax [4]: 0.592 | combination Emax [5]: 0.818

COc1cc2ncnc(Nc3ccc(F)c(Cl)c3)c2cc1OCCCN1CCOCC1 [Gefitinib] + CC(C)n1c(=O)n(C)c2cnc3cc(F)c(-c4ccc(OCCCN5CCCCC5)nc4)cc3c21 [AZD1390] (first compound max 10 µM, 7x7, partner max 0.3 µM)
Bliss excess [1]: -0.0669 | Bliss excess [2]: -0.0837 | combination Emax [6]: 0.139 | combination Emax [16]: 0.318 | combination Emax [7]: 0.195 | combination Emax [8]: 0.147 | combination Emax [9]: 0.495 | combination Emax [3]: 0.339 | combination Emax [10]: 0.361 | combination Emax [11]: 0.101 | combination Emax [4]: 0.24 | combination Emax [13]: 0.196 | combination Emax [5]: 0.176 | combination Emax [14]: 0.134 | combination Emax [15]: 0.0453

Cc1nc(Nc2ncc(C(=O)Nc3c(C)cccc3Cl)s2)cc(N2CCN(CCO)CC2)n1 [Dasatinib] + CC(=O)Nc1cccc(-n2c(=O)n(C3CC3)c(=O)c3c(Nc4ccc(I)cc4F)n(C)c(=O)c(C)c32)c1 [Trametinib] (first compound max 2 µM, 7x7, partner max 1 µM)
Bliss excess [1]: -0.0121 | Bliss excess [2]: -0.0356 | combination Emax [6]: 0.512 | combination Emax [16]: 0.361 | combination Emax [7]: 0.527 | combination Emax [8]: 0.334 | combination Emax [9]: 0.973 | combination Emax [3]: 0.656 | combination Emax [10]: 0.472 | combination Emax [11]: 0.205 | combination Emax [13]: 0.414 | combination Emax [5]: 0.199 | combination Emax [14]: 0.305 | combination Emax [15]: 0.834

N#Cc1cnc(Nc2cc(NC[C@H]3CNCCO3)c(C(F)(F)F)cn2)cn1 [SRA737] + C=CCn1c(=O)c2cnc(Nc3ccc(N4CCN(C)CC4)cc3)nc2n1-c1cccc(C(C)(C)O)n1 [AZD1775] (first compound max 10 µM, partner max 1 µM)
Bliss excess [1]: 0.0971 | Bliss excess [2]: 0.0292 | combination Emax [3]: 0.916 | combination Emax [4]: 0.511 | combination Emax [5]: 0.514
